Like-named read-outs stand apart in the source and are kept apart here.
Experiments:
Hennes-20 cells = assay: Hennes-20 oncology screen; assay type: cell-based; settings: 72 h, alamar Blue
Protocol: To screen compounds for oncology activity Hennes-20 cells were plated at low (500 cells/well) versus high (15,000 cells/well) densities and treated with DMSO (vehicle) or dose-titration of compounds. The rationale for this screen is that an intrinsically toxic compound should kill cells regardless of density, including in Hennes-20 cells. However, a compound that selectively triggers the arrest of proliferation will inhibit cell growth when plated at a low density will appear cytotoxic due to inhibition of cell growth when plated at a low density but will appear non-toxic to cells plated at a high density where the cells are approaching confluence and the readout detected by a cell viability assay is already close to the maximum.
To conduct the Hennes-20 screen, two 96 well plates were seeded with Hennes 20 cells in parallel where one was plated at a density of 500 cells/well and the other was plated at a density of 15,000 cells/well. 90 uL of minimum essential media was added to each well and plates were placed in a 37 degrees Celsius incubator for 24 hours. The next day, 10 ul of media containing dilutions of compound in DMSO were added to each plate. Six wells on each plate received 10 ul of media containing only DMSO. Each well was gently mixed 5 times with a 100 ul pipette. Plates were incubated at 37 degrees Celsius for 72 hours and then 10 uL of alamar Blue was added to each well. Wells were mixed 5 times then incubated at 37 degrees Celsius for […]. Plates were then read at 530/590.
The rationale for the screen is as follows: Hennes-20 cells lack endogenous apoptosis. Cells plated at low density will proliferate and approach confluence in 72 hrs. A drug that arrests proliferation may have its proliferation blocking effect masked by the triggering of endogenous apoptosis. However, in the Hennes line, lacking endogenous apoptosis, such an arrest is manifest as a dose-dependent maintenance at low cell density. Since the high-density cells are plated close to confluence, the difference between Alamar Blue cell survival readings after 72 hrs reflects the ability of the drug to block proliferation in the low density-plated cells. In the high density-plated cells any diminution of Alamar Blue readout vs vehicle control is due to intrinsic toxicity, not proliferation arrest, since cells were already at confluence. Thus, a compound that appears toxic (low Alamar Blue readings after 72 hrs) on the low-density plate, but which appears non-toxic (high Alamar Blue readings after 72 hrs) on the high-density plate, must be arresting proliferation, since intrinsic compound toxicity should be observed at both low and high cell densities, not selectively on the low-density plate.

C. albicans ATCC 24433 = assay: Antifungal MIC assay; settings: Candida albicans, ATCC24433
S. aureus ATCC25923 = assay: MIC assay, serial dilution; settings: Staphylococcus aureus
E. coli ATCC25922 = assay: MIC assay, serial dilution; settings: Escherichia coli
A. baumannii ATCC19606 = assay: MIC assay, serial dilution; settings: Acinetobacter baumannii
NL4-3 Rluc virus = assay: microbe, parasite or virus in culture; assay type: cell-based, HIV; settings: MT-2 cells, MOI 0.02, 96 hours
[1] = Human immunodeficiency virus 1, NL43, MT2, 96 h
[2] = ATCC25922, read-out: Anti-bacterial Activity (E. coli MIC (uM)), E. coli, Table 5

| Structure (SMILES) | EC50 (Hennes-20 cells) | MIC (C. albicans ATCC 24433) | MIC (S. aureus ATCC25923) | MIC (E. coli ATCC25922; ATCC25922, E. coli ATCC25922) | MIC (A. baumannii ATCC19606) | EC50 (NL4-3 Rluc virus; [1]) | MIC (E. coli ATCC25922; [2]) | EC50 (NL4-3 Rluc virus) |
| --- | --- | --- | --- | --- | --- | --- | --- | --- |
| c1cc2nc3c(N4CCCNCC4)cc(N4CCCC4)cc3[s+]c2cc1N1CCCC1 [Compound 119] | 12.5 µM | 6.25 µM | 25 mg/L | 100 mg/L | > 100 mg/L | – | – | – |
| CC(C)(C)c1cc(N2CCCC2)cc2[s+]c3cc(N4CCCC4)cc(N4CCCC4)c3nc12 [Compound 130] | – | 6.25 µM | 6.25 mg/L | 12.5 mg/L | 6.25 mg/L | – | – | – |
| CCc1cc(N2CCSCC2)cc2[s+]c3cc(N4CCSCC4)cc(C)c3nc12 [Compound 99] | – | – | – | – | – | 26 µM | 6.3 µM | – |
| COC(=O)C1C2C(CN1c1ccc3nc4ccc(N5CC6C(C5C(=O)OC)C6(C)C)cc4[s+]c3c1)C2(C)C (centres unmarked) [Compound 129] | – | > 100 µM | 12.5 mg/L | > 100 mg/L | > 100 mg/L | – | – | – |
| CC1(C)C2CN(c3ccc4nc5ccc(N6CCCC6)cc5[s+]c4c3)CC21 (centres unmarked) [Compound 150] | – | 1.6 µM | 1.6 mg/L | 100 mg/L | 25 mg/L | – | – | – |
| c1cc2nc3c(N4CCNCC4)cc(N4CCCC4)cc3[s+]c2cc1N1CCCC1 [Compound 120] | 12.5 µM | 100 µM | 100 mg/L | > 100 mg/L | > 100 mg/L | – | – | – |
| CC1(C)C2CN(c3cc(N4CC5C(C4)C5(C)C)c4nc5ccc(N6CCCC6)cc5[s+]c4c3)CC21 (centres unmarked) [Compound 125] | 0.1 µM | 6.25 µM | 12.5 mg/L | > 100 mg/L | > 100 mg/L | – | – | – |
| c1cc2nc3ccc(N4CC5CNCC5C4)cc3[s+]c2cc1N1CC2CNCC2C1 (centres unmarked) [Compound 134] | 12.5 µM | > 100 µM | > 100 mg/L | > 100 mg/L | > 100 mg/L | – | – | – |
| c1cc2nc3ccc(N4CCCOCC4)cc3[s+]c2cc1N1CCCOCC1 [Compound 141] | – | > 100 µM | 100 mg/L | > 100 mg/L | > 100 mg/L | – | – | – |
| c1cc2nc3c(N4CCCC4)cc(N4CCCC4)cc3[s+]c2cc1N1C2CCCC1CC2 [Compound 145] | – | 1.6 µM | 1.6 mg/L | 25 mg/L | 6.25 mg/L | – | – | – |
| c1cc2nc3c(N4CCOCC4)cc(N4CCCC4)cc3[s+]c2cc1N1CCCC1 [Compound 123] | – | 3.1 µM | 6.25 mg/L | > 100 mg/L | 100 mg/L | – | – | – |
| c1cc2nc3ccc(N4C5CCCC4CC5)cc3[s+]c2cc1N1C2CCCC1CC2 [Compound 146] | – | 6.25 µM | 3.1 mg/L | > 100 mg/L | 25 mg/L | – | – | – |
| CCc1cc(N(C)C)cc2[s+]c3cc(N4CCCNCC4)cc(CC)c3nc12 [Compound 87] | – | – | – | – | – | – | – | 10 µM |
| CC1(C)C2CN(c3ccc4nc5ccc(N6C7CCCC6CC7)cc5[s+]c4c3)CC21 (centres unmarked) [Compound 147] | – | 3.1 µM | 1.6 mg/L | 100 mg/L | 25 mg/L | – | – | – |
| c1cc2nc3c(N4CCSC4)cc(N4CCCC4)cc3[s+]c2cc1N1CCCC1 [Compound 118] | 12.5 µM | 3.1 µM | 6.25 mg/L | > 100 mg/L | > 100 mg/L | – | – | – |
| COC(=O)C1C2C(CN1c1cc(N3CCCC3)cc3[s+]c4cc(N5CCCC5)ccc4nc13)C2(C)C (centres unmarked) [Compound 116] | – | – | 1.6 mg/L | 12.5 mg/L | 6.25 mg/L | – | – | – |
| CC(C)(C)c1cc([N+]2([O-])CCCC2)cc2[s+]c3cc(N4CCCC4)ccc3nc12 [Compound 133] | – | 100 µM | 12.5 mg/L | > 100 mg/L | 100 mg/L | – | – | – |
| CCc1cc(N2CCC(N)CC2)cc2[s+]c3cc(N4CCCCC4)cc(C)c3nc12 [Compound 100] | – | – | – | – | – | 33 µM | 25 µM | – |
| CCc1cc(N2CCCC2)cc2[s+]c3cc(N4CCC(C)C4)cc(C)c3nc12 (centres unmarked) [Compound 57] | – | – | – | – | – | 17 µM | 12.5 µM | – |
| c1cc2nc3ccc(N4CCSCC4)cc3[s+]c2cc1N1CCSCC1 [Compound 143] | – | > 100 µM | – | – | – | – | – | – |

| Structure (SMILES) | EC50 (Hennes-20 cells) | MIC (C. albicans ATCC 24433) | MIC (S. aureus ATCC25923) | MIC (E. coli ATCC25922; ATCC25922, E. coli ATCC25922) | MIC (A. baumannii ATCC19606) | EC50 (NL4-3 Rluc virus; [1]) | MIC (E. coli ATCC25922; [2]) | EC50 (NL4-3 Rluc virus) |
| --- | --- | --- | --- | --- | --- | --- | --- | --- |
| CC(C)(C)c1cc(N2CCCC2)cc2[s+]c3cc(N4CCCC4)cc(Br)c3nc12 [Compound 132] | – | 12.5 µM | 6.25 mg/L | 100 mg/L | 12.5 mg/L | – | – | – |
| CC(C)(C)OC(=O)N1CCCN(c2ccc3nc4ccc(N5CCCN(C(=O)OC(C)(C)C)CC5)cc4[s+]c3c2)CC1 [Compound 140] | – | > 100 µM | > 100 mg/L | > 100 mg/L | > 100 mg/L | – | – | – |
| c1ccc2c(c1)Sc1ccccc1N2c1ccc2nc3ccc(N4C5CCCC4CC5)cc3[s+]c2c1 [Compound 148] | – | 100 µM | 25 mg/L | > 100 mg/L | 100 mg/L | – | – | – |
| CC(C)(C)OC(=O)NC1C2CN(c3cc(N4CCCC4)cc4[s+]c5cc(N6CCCC6)ccc5nc34)CC21 (centres unmarked) [Compound 111] | – | 1.6 µM | – | – | – | – | – | – |
| CC1(C)C2CN(c3ccc4nc5ccc(N6CC7C(C6C(=O)O)C7(C)C)cc5[s+]c4c3)C(C(=O)O)C21 (centres unmarked) [Compound 127] | – | > 100 µM | > 100 mg/L | > 100 mg/L | > 100 mg/L | – | – | – |
| CCc1cc(N2CCCNCC2)cc2[s+]c3cc(N4CCCNCC4)cc(C)c3nc12 [Compound 16] | – | – | – | – | – | 4.8 µM | – | – |
| Cc1cc(N2CC3C(C2)C3(C)C)cc2[s+]c3cc(N4CC5C(C4)C5(C)C)cc(C)c3nc12 (centres unmarked) [Compound 11] | < 0.5 µM | – | – | – | – | – | 6.25 µM | – |
| CCc1cc(N2CCC(N(C)C)CC2)cc2[s+]c3cc(N4CCC(N(C)C)CC4)cc(C)c3nc12 [Compound 98] | – | – | – | – | – | 38 µM | – | – |
| CN(C)c1ccc2nc3ccc(N4CCCC4)cc3[s+]c2c1 [Compound 35] | 0.5 µM | – | – | – | – | – | 12.5 µM | – |
| CCN(CC)c1cc(N2CCCC2)cc2[s+]c3cc(N4CCCC4)ccc3nc12 [Compound 117] | 12.5 µM | 1.6 µM | 1.6 mg/L | 25 mg/L | 12.5 mg/L | – | – | – |
| C1=CCN(c2ccc3nc4ccc(N5CC=CC5)cc4[s+]c3c2)C1 [Compound 136] | – | > 100 µM | 25 mg/L | > 100 mg/L | > 100 mg/L | – | – | – |
| CC1(C)C2CN(c3ccc4nc5c(N6CC7C(C6)C7(C)C)cc(N6CCCC6)cc5[s+]c4c3)CC21 (centres unmarked) [Compound 124] | – | 1.6 µM | 6.25 mg/L | 100 mg/L | 12.5 mg/L | – | – | – |
| c1cc2nc3ccc(N4CCCNCC4)cc3[s+]c2cc1N1CCCNCC1 [Compound 139] | – | > 100 µM | > 100 mg/L | > 100 mg/L | > 100 mg/L | – | – | – |
| CC1(C)C2CN(c3ccc4nc5c(Cl)cc(N6CC7C(C6)C7(C)C)cc5[s+]c4c3)CC21 (centres unmarked) [Compound 15] | 2.5 µM | – | – | – | – | – | 12.5 µM | – |
| CC(C)(C)OC(=O)NCc1cc2nc3ccc(N4CC5C(C4)C5(C)C)cc3[s+]c2cc1N1CC2C(C1)C2(C)C (centres unmarked) [Compound 8] | < 2.5 µM | – | – | – | – | – | 6.3 µM | – |
| c1cc2nc3ccc(N4CCNC4)cc3[s+]c2cc1N1CCNC1 [Compound 137] | – | > 100 µM | > 100 mg/L | > 100 mg/L | > 100 mg/L | – | – | – |
| CC(C)(C)c1cc(N2CCCC2)cc2[s+]c3cc(N4CCCC4)ccc3nc12 [Compound 65] | < 0.5 µM | – | – | – | – | – | 3.1 µM | – |
| CC(C)(C)c1cc(N2CC3C(C2)C3(C)C)cc2[s+]c3cc(N4CC5C(C4)C5(C)C)cc(N4CC5C(C4)C5(C)C)c3nc12 (centres unmarked) [Compound 126] | 0.5 µM | 12.5 µM | 100 mg/L | > 100 mg/L | > 100 mg/L | – | – | – |
| c1cc2nc3ccc(N4CCCCC4)cc3[s+]c2cc1N1CCCCC1 [Compound 62] | < 0.5 µM | – | – | – | – | – | 6.3 µM | – |
| CCc1cc(N2CCOCC2)cc2[s+]c3cc(N4CCOCC4)cc(C)c3nc12 [Compound 97] | – | – | – | – | – | 0.23 µM | 25 µM | – |

Source: patent publication US20240300940A1, “Phenothiazinyl Compounds and Uses” (Prosetta Biosciences, Inc., priority 2023, published 2024)
